Results reported in patent publication US6509010B2, “Cosmetic products for the reduction of sweat acidity” (Unilever Home & Personal Care USA, division of Conopco, Inc., priority 2001, dated 2003).
Where two headings read alike, the source gives them in different places.

Columns and labels:
V-ATPase = experiment: Proton transfer inhibition: intracellular pH recovery after ammonium chloride pulse in isolated, microperfused human eccrine sweat reabsorptive ducts (BCECF-type probe); format: cell-based; details: for Inhibition of proton transfer out of the cells of the reabsorptive duct: significant at the 95% level (Student t-test); for Rate of pH recovery (%): control = 100, after 20 mM basolateral ammonium chloride pulse, 37° C.
Method: Human eccrine sweat ducts were isolated using the Kealey shearing technique (Lee C. M., Jones C. J., and Kealey T., J. Cell. Sci., 72, 1984, 259-274). Isolated portions of reabsorptive duct were mounted on a conventional microperfusion apparatus, between glass pipettes. One end of the duct was cannulated with a microperfusion pipette. The ducts were perfused at 37° C. with a control solution containing N-methyl-D-glucamine chloride (114 mM), potassium hydrogenphosphate (2.5 mM), magnesium chloride (1 mM), calcium chloride (1 mM), glucose (5 mM), and N-methyl-D-glucamine lactate (4 mM). Osmolality was adjusted to 300 mOsm/kg with mannitol and the pH adjusted to 7.4 with tris-HEPES. Intracellular pH was measured using the pH sensitive fluorescent probe BCEFC (bis-2-carboxyethyl-carbfluorescein) at 5 μM.
[…].
In the next part of the procedure, the indicated sweat ducts were subjected to acidification by a 20 mM basolateral pulse of ammonium chloride, with the additional presence of a V-ATPase inhibitor.

[1] = test system: Staphylococcus epidermidis; details: 80% or greater reduction in growth over 16 to 24 hours at 37° C., cited from earlier work

Sequence of V-ATPase (P27449 whole entry, the tested form may be a part): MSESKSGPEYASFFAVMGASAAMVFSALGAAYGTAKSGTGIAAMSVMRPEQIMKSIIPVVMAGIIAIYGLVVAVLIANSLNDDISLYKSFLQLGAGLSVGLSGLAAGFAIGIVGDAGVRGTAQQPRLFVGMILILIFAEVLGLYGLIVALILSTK

C/C=C/[C@H]1O[C@@](O)([C@@H](C)[C@H](O)[C@H](C)[C@H]2OC(=O)/C(OC)=C/C(C)=C/[C@@H](C)[C@@H](O)[C@@H](CC)[C@@H](O)[C@H](C)C/C(C)=C/C=C/[C@@H]2OC)C[C@@H](O[C@H]2C[C@@H](O)[C@H](OC(N)=O)[C@@H](C)O2)[C@@H]1C [Concanamycin-A, concanamycin A]
Inhibition of proton transfer out of the cells of the reabsorptive duct (V-ATPase; at 0.1 μg/ml): inhibit proton transfer
Rate of pH recovery (%) (V-ATPase; inhibitor at 0.1 μg/ml): 5%

Oc1cc(Cl)ccc1Oc1ccc(Cl)cc1Cl [triclosan, 2′,4,4′-trichloro,2-hydroxy-diphenyl ether]
MIC ([1]; literature values): 0.01 to 10 µg/mL

CC(C)=CCCC(C)=CCCC(C)=CCO [farnesol, 3,7,11-trimethyldodeca-2,6,10-trienol]
MIC ([1]; literature values): ca. 25 μg.ml^−1

CCO [ethanol]
MIC ([1]; stated without source): greater than 1 mg.ml^−1

CO/C1=C\C(C)=C\[C@@H](C)[C@@H](O)[C@@H](C)C/C(C)=C/C=C/[C@H](OC)[C@@H]([C@@H](C)[C@@H](O)[C@H](C)[C@@]2(O)C[C@@H](O)[C@H](C)[C@@H](C(C)C)O2)OC1=O [Bafilomycin-A1, bafilomycin A1]
Inhibition of proton transfer out of the cells of the reabsorptive duct (V-ATPase; at 6.2 μg/ml): inhibit proton transfer
Rate of pH recovery (%) (V-ATPase; inhibitor at 6.2 μg/ml): 27%

olygomycin
Inhibition of proton transfer out of the cells of the reabsorptive duct (V-ATPase; at 20 μg/ml): inhibit proton transfer
Rate of pH recovery (%) (V-ATPase; inhibitor at 20 μg/ml): 12%
